ChEMBL document CHEMBL1122017, “Synthesis and peripheral cardiovascular action of cis- and trans-2-(3,4-dimethoxybenzyl)cyclopentylamine hydrochlorides” (1982)

How the values were obtained:
[1] = test system: Canis familiaris; test: Mean percent decrease in mean blood pressure was determined at the dose of 15 umol/kg (2 minutes after injection) in mongrel dogs; type: functional, Canis lupus familiaris
[2] = test system: Canis familiaris; test: Mean percent decrease in mean blood pressure was determined at the dose of 15 umol/kg in mongrel dogs; type: functional, Canis lupus familiaris

COc1ccc(C[C@@H]2CCC[C@@H]2N)cc1OC
Decrease in blood pressure [1]: 37.9%
Decrease in blood pressure [2]: 30%

COc1ccc(C[C@@H]2CCC[C@H]2N)cc1OC
Decrease in blood pressure [1]: 7.5%
Decrease in blood pressure [2]: 25.1%
